Patent US5925618A, “Peptides useful as somatostatin antagonists” (American Cyanamid Company, priority 1998, dated 1999)
Square brackets hold non-standard residues; d marks the D form. Peptide text beside a SMILES is read from it.

Columns and labels:
Male Sprague-Dawley rats = assay: Spontaneous growth hormone secretory pulses in conscious rats; assay type: in vivo, rat; details: 300 μg/hr i.v. infusion for two hours
Method: Evaluation in conscious rats. Male Sprague-Dawley rats are fitted so as to allow efficient intravenous treatment with control and test compounds as well as frequent blood sampling. Blood samples are tested for growth hormone (GH) levels by radioimmunoassay. Blood samples are taken over a 12 hour period. At a 6 hour time point, peptide 1 is infused intravenously (300 μg/hr) into conscious, freely moving male rats for two hours. Control animals receive saline infusions over the same time period. […] It is known, SRIF is required for growth hormone pulsatility and that an SRIF antagonist abolishes said pulsatility (see Tannenbaum, G. S. and Ling, N., Endocrinology, 115, 1952-1957, 1984, incorporated herein by reference).

[1] = target: T1, S. cerevisiae (yeast) cells expressing SRIF receptors (Rattus norvegicus, UniProt P30680); assay: Yeast bioassay for SRIF antagonist activity (LY364 cells growing in response to SRIF, zone of growth inhibition); assay type: cell-based; details: Sample type 4th iteration; 10 μL of 5 mg/mL on disk, SRIF 10 nM, read after 3 days
T1 construct: expressed in transfected cells; host or cells: S. cerevisiae strain LY364
T1 sequence (P30680 whole entry): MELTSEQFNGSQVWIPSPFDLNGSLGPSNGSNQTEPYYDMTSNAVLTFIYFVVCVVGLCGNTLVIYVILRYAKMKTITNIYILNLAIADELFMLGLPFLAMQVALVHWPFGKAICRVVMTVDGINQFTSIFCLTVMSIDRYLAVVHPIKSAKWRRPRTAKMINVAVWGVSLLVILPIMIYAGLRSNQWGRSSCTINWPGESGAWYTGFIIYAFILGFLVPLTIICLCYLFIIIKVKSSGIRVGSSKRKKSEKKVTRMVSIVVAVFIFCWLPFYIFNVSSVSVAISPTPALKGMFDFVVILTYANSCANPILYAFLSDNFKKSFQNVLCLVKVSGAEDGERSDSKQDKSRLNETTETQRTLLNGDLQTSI
From the text: SRIF antagonist assay using S. cerevisiae (yeast) cells expressing SRIF receptors that grow in response to SRIF
Agar plates containing LY364 cells that are growing in the presence of added SRIF are the basis for a sensitive SRIF antagonist assay, whereby zones of growth inhibition result from the addition of SRIF antagonists to the surface of the agar plate (see L. A. Price, et al., Molecular and Cellular Biology, 15, 6188-6195, 1995, incorporated herein by reference).
In this assay, LY364 cells are grown overnight in 2 mL of synthetic complete(SC) medium (3.4 g/L YNB without amino acids and ammonium sulfate, 10 g/L ammonium sulfate and 1.4 g/L CSM-ura-trp) with glucose (2%) and without uracil and tryptophan. These cells are washed and cultured for 4 to 8 hours in 5 mL of SC medium with lactate (3%) and without uracil and tryptophan, and finally grown overnight in 5 mL of SC medium with galactose (2%) and without uracil and tryptophan. Molten (50° C.) SC agar medium with galactose (2%) and without uracil, tryptophan and histidine is adjusted to pH 6.8 with KOH, mixed with 2×10^4 cells/mL and SRIF (S-14, 10 nM) and poured into square (20×20 cm) petri dishes. Sterile filter disks are placed on the surface of the agar, and saturated with 10 μL of water or DMSO containing 5 mg/mL test peptides. After three days, the plates display a uniform cloudy background of LY264 cells growing in response to the added SRIF. […] This zone is quantified by measuring its diameter (mm), which varies according to the potency of the SRIF antagonist. Those peptides or mixtures of peptides displaying the largest zones of inhibition are further characterized.
Values are compared among samples in the same experiment, as the degree of yeast growth varies somewhat from assay to assay. For the first five sample types, in which progressively less complex mixtures of peptides are found, this assay is the primary determining factor in choosing which samples form the basis of subsequent syntheses.
Plates are read after 3 days. Samples shown in Table I in bold type are chosen for further synthesis. In Table I, all amino acids are D-amino acids and dashes represent undefined amino acid residues.

- Inhibition Zone [1]: 18 mm
SMILES: CC[C@@H](C)[C@@H](NC(=O)[C@@H](Cc1ccccc1)NC(=O)[C@@H](Cc1c[nH]cn1)NC(C)=O)C(=O)N[C@H](CCCNC(=N)N)C(=O)N[C@H](Cc1c[nH]c2ccccc12)C(=O)N[C@H](Cc1ccccc1)C(N)=O [Peptide 1, h-f-i-r-w-f] (Ac-[dH][dF][dI][dR][dW][dF]-NH2)
- spontaneous growth hormone secretory pulses (Male Sprague-Dawley rats): abolition of these pulses
